These are literature values, as cited in US20250387447A1, “Herbal composition for use in the improvement of physical and mental health recovery and maintenance, including the improvement of cognitive function or prevention of cognitive decline” (Conka Elite Ltd, priority 2022, published 2025).

The test system of the data set is neurons.

On to `COc1cc(/C=C/C(=O)CC(=O)/C=C/c2ccc(O)c(OC)c2)ccc1O` [curcumin], for which the “neuron death caused by oxygen-glucose deprivation” value is recorded as “protects neurons from death”. Besides, the expression of thioredoxin entry (Nrf2 pathway) was “activate the expression of thioredoxin”.
